For 32 compounds, IC50 and solubility results are on record in patent US20220380319A1 (Bial - R&D Investments, S.A., priority 2019, published 2022).

The target of one series is T1, acid ceramidase (Homo sapiens, UniProt Q13510).
T1 construct: Cell lysates overexpressing acid ceramidase were used as the enzyme source; expressed in transfected cells
T1 sequence (Q13510 22-395): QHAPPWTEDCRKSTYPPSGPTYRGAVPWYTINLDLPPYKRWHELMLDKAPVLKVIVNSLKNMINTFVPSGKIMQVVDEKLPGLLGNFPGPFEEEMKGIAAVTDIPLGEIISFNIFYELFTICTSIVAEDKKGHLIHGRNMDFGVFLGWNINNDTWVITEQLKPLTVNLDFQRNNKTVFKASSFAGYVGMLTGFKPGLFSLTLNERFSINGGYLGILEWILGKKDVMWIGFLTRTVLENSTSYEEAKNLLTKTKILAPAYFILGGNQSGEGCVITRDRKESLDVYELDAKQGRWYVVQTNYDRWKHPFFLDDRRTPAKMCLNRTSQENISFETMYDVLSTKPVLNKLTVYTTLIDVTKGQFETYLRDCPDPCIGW
Kind of series: Acid ceramidase inhibition, biochemical fluorescent assay with cell lysates overexpressing acid ceramidase, substrate Rbm14-12. The conditions noted are these: substrate Rbm14-12 6.3 μM, pH 4.5. In short, it runs like this:
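IC50 derived by four-parameter fitting of fluorescence (ex360 nm, em446 nm) produced after 1 hr in methanol/NaIO4/glycine stop buffer, pH 10.6. Reaction: 6.3 μM Rbm14-12, 1 hr RT, following 1 hr RT compound preincubation with 10 μg overexpressing-cell lysate protein in pH 4.5 NaAC/NaCl buffer.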

Series [1] can be described thus: Compound solubility in water.

≈ marks a conversion by molar mass, not a printed value.

Take `COc1nc2cc(C3CCN(C)CC3)ccc2n1C(=O)NCC(C)C` [Example 193, N-iso-Butyl-2-methoxy-5-(1-methylpiperidin-4-yl)-1H-benzo[d]imidazole-1-carboxamide]: on acid ceramidase, the IC50 – broadly, the point on the concentration scale where inhibition reaches its midpoint – was more than 1000 nM. Moreover, in series [1], the solubility – broadly, the concentration that dissolves in the medium under given conditions – came out at 39 µg/mL (≈ 113 µM).
In turn, `COc1nc2cc(N3CCN(C)CC3)ccc2n1C(=O)NCCCc1ccccc1` [Example 194, 2-Methoxy-5-(4-methylpiperazin-1-yl)-N-(3-phenylpropyl)-1H-benzo[d]imidazole-1-carboxamide] yielded an IC50 against acid ceramidase of 200 to 1000 nM. Besides, in series [1], the concentration in solution (solubility) came to 30 µg/mL (≈ 73.6 µM).
With `COc1nc2cc(C3CCN(C)CC3)ccc2n1C(=O)NCCCc1ccccc1` [Example 195a, 2-Methoxy-5-(1-methylpiperidin-4-yl)-N-(3-phenylpropyl)-1H-benzo[d]imidazole-1-carboxamide], the IC50 against acid ceramidase is more than 1000 nM. Besides, in series [1], the concentration in solution (solubility) was 43 µg/mL (≈ 106 µM).
The matching figures for `COc1nc2ccc(C3CCN(C)CC3)cc2n1C(=O)NCCCc1ccccc1` [Example 195b, 2-methoxy-6-(1-methylpiperidin-4-yl)-N-(3-phenylpropyl)-1H-benzo[d]imidazole-1-carboxamide]: more than 1000 nM and 39 µg/mL (≈ 95.9 µM).
Consider `COc1nc2ccc(N3CCOCC3)cc2n1C(=O)NCCCc1nccs1` [Example 196, 2-Methoxy-6-morpholino-N-(3-(thiazol-2-yl)propyl)-1H-benzo[d]imidazole-1-carboxamide], for which, at acid ceramidase, the IC50 lay in the range of 200 to 1000 nM. In series [1], the solubility is 35 µg/mL (≈ 87.2 µM).
`CC(C)CCNC(=O)n1cnc2c(N3CCN(C)C(C)C3)cccc21` (stereo not shown) [Example 197, 4-(3,4-Dimethylpiperazin-1-yl)-N-iso-pentyl-1H-benzo[d]imidazole-1-carboxamide] came in with an IC50 at acid ceramidase of 200 to 1000 nM. In series [1], the concentration in solution (solubility) came to 28 µg/mL (≈ 81.5 µM).
In turn, `CC(C)CCNC(=O)n1cnc2c(N3CCN4CCCCC4C3)cccc21` (stereo not shown) [Example 198, 4-(Hexahydro-1H-pyrido[1,2-a]pyrazin-2(6H)-yl)-N-iso-pentyl-1H-benzo[d]imidazole-1-carboxamide] displayed an IC50 at acid ceramidase of 200 to 1000 nM. Besides, the solubility in series [1] came out at 28 µg/mL (≈ 75.8 µM).
`CC(C)CCNC(=O)n1cnc2c(N3CCN4CCOC[C@H]4C3)cccc21` [Example 199, (R)-4-(Hexahydropyrazino[2,1-c][1,4]oxazin-8(1H)-yl)-N-isopentyl-1H-benzo[d]imidazole-1-carboxamide] gave an IC50 at acid ceramidase of more than 1000 nM. The same compound gave a solubility in series [1] of 31 µg/mL (≈ 83.4 µM).
`CC(C)CCNC(=O)n1cnc2c(N3CCN(CCC#N)CC3)cccc21` [Example 200, 4-(4-(2-Cyanoethyl)piperazin-1-yl)-N-iso-pentyl-1H-benzo[d]imidazole-1-carboxamide] displayed a half-inhibitory concentration (IC50) on acid ceramidase of 200 to 1000 nM. For the same compound, in series [1], the solubility stood at 30 µg/mL (≈ 81.4 µM).
In the case of `CC(C)CCNC(=O)n1cnc2c(N3CCN(C)C(CF)C3)cccc21` (stereo not shown) [Example 201, 4-(3-(Fluoromethyl)-4-methylpiperazin-1-yl)-N-isopentyl-1H-benzo[d]imidazole-1-carboxamide], the IC50 against acid ceramidase was 200 to 1000 nM. The solubility in series [1] stood at 28 µg/mL (≈ 77.5 µM).
`CCCN1CCN(c2cccc3c2ncn3C(=O)NCCC(C)C)CC1` [Example 202, N-iso-Pentyl-4-(4-propylpiperazin-1-yl)-1H-benzo[d]imidazole-1-carboxamide] had an IC50 against acid ceramidase of 200 to 1000 nM. The solubility in series [1] is 15 µg/mL (≈ 42 µM).
Regarding `CC(=O)N1CCN(c2cccc3c2ncn3C(=O)NCCC(C)C)CC1` [Example 203, 4-(4-Acetylpiperazin-1-yl)-N-isopentyl-1H-benzo[d]imidazole-1-carboxamide], at acid ceramidase, the IC50 was less than 200 nM. The same compound displayed a solubility in series [1] of 26 µg/mL (≈ 72.7 µM).
On to `CC(C)CCNC(=O)n1cnc2c(N3CCN(C4CN(C)C4)CC3)cccc21` [Example 204, N-iso-Pentyl-4-(4-(1-methylazetidin-3-yl)-piperazin-1-yl)-1H-benzo[d]imidazole-1-carboxamide], for which the IC50 on acid ceramidase is 200 to 1000 nM. This compound also came in with a solubility in series [1] of 36 µg/mL (≈ 93.6 µM).
Turning to `CC(C)CCNC(=O)n1cnc2c(N3CC(N4CCN(C)CC4)C3)cccc21` [Example 205, N-iso-Pentyl-4-(3-(4-methylpiperazin-1-yl)-azetidine-1-yl)-1H-benzo[d]imidazole-1-carboxamide], on acid ceramidase, the IC50 lay in the range of 200 to 1000 nM. The same compound showed a solubility in series [1] of 31 µg/mL (≈ 80.6 µM).
On to `CC(C)CCNC(=O)n1cnc2c(N3CCN(C4CC4)C(=O)C3)cccc21` [Example 206, 4-(4-Cyclopropyl-3-oxopiperazin-1-yl)-N-isopentyl-1H-benzo[d]imidazole-1-carboxamide], for which, on acid ceramidase, the IC50 fell in the range of 200 to 1000 nM. The compound further registered a solubility in series [1] of 20 µg/mL (≈ 54.1 µM).
For `CC(C)CCNC(=O)n1cnc2c(N3CCN(C(C)C)CC3)cccc21` [Example 207, N-iso-Pentyl-4-(4-isopropylpiperazin-1-yl)-1H-benzo[d]imidazole-1-carboxamide] the same measures were 200 to 1000 nM and 32 µg/mL (≈ 89.5 µM).
Consider `CCN1CCN(c2cccc3c2ncn3C(=O)NCCC(C)C)CC1` [Example 208], for which, on acid ceramidase, the IC50 fell in the range of 200 to 1000 nM. Further, in series [1], the solubility came out at 31 µg/mL (≈ 90.3 µM).
For `CC(C)CCNC(=O)n1cnc2c(N3CCN4C(=O)CCC4C3)cccc21` (stereo not shown) [Example 209, N-iso-Pentyl-4-(6-oxohexahydropyrrolo[1,2-a]pyrazin-2(1H)-yl)-1H-benzo[d]imidazole-1-carboxamide] the same measures were 200 to 1000 nM and 24 µg/mL (≈ 65 µM).
In turn, `COc1nc2c(N3CCN(C)CC3)cc(C#N)cc2n1C(=O)NCCC(C)C` [Example 210, 6-Cyano-N-iso-pentyl-2-methoxy-4-(4-methylpiperazin-1-yl)-1H-benzo[d]imidazole-1-carboxamide] came in with an IC50 against acid ceramidase of less than 200 nM. The compound further displayed a solubility in series [1] of 12 µg/mL (≈ 31.2 µM).
For `COc1nc2c(N3CCOCC3)cncc2n1C(=O)NCCC(C)C` [Example 211, N-iso-Pentyl-2-methoxy-7-morpholino-3H-imidazo[4,5-c]pyridine-3-carboxamide], the IC50 against acid ceramidase was less than 200 nM. Besides, the solubility in series [1] turned out to be 26 µg/mL (≈ 74.8 µM).
For `COc1nc2c(N3CCOCC3)cc(F)cc2n1C(=O)NCCC(C)C` [Example 212, 6-Fluoro-N-iso-pentyl-2-methoxy-4-morpholino-1H-benzo[d]imidazole-1-carboxamide], the IC50 at acid ceramidase is 200 to 1000 nM. This compound also displayed a solubility in series [1] of 8 µg/mL (≈ 22 µM).
Take `COc1nc2cnc(N3CCOCC3)cc2n1C(=O)NCCCc1ccccc1` [Example 213a, 2-Methoxy-6-morpholino-N-(3-phenylpropyl)-1H-imidazo[4,5-c]pyridine-1-carboxamide]: at acid ceramidase, the IC50 is less than 200 nM. In series [1], this compound displayed a solubility of 9 µg/mL (≈ 22.8 µM).
On acid ceramidase, `COc1nc2cc(F)c(N3CCOCC3)cc2n1C(=O)NCCCCc1ccccc1` [Example 214, 5-Fluoro-2-methoxy-6-morpholino-N-(4-phenylbutyl)-1H-benzo[d]imidazole-1-carboxamide] had an IC50 of less than 200 nM. This compound yielded a solubility in series [1] of 0.3 µg/mL (≈ 0.703 µM).
On to `COc1nc2cc(N3CCOCC3)c(F)cc2n1C(=O)NCCCCc1ccccc1` [Example 215, 6-Fluoro-2-methoxy-5-morpholino-N-(4-phenylbutyl)-1H-benzo[d]imidazole-1-carboxamide], for which the IC50 against acid ceramidase is less than 200 nM. Also, in series [1], the concentration in solution (solubility) was 0.3 µg/mL (≈ 0.703 µM).
`O=C(NCCCc1ccccc1)n1cnc2c(N3CCC4(CC3)COC4)cccc21` [Example 216, N-(3-Phenylpropyl)-4-(2-oxa-7-azaspiro[3.5]nonan-7-yl)-1H-benzo[d]imidazole-1-carboxamide] had an IC50 on acid ceramidase of less than 200 nM. Also, the solubility in series [1] stood at 2.5 µg/mL (≈ 6.18 µM).
`O=C(NCCCCc1ccccc1)n1cnc2c(N3CCC4(CC3)COC4)cccc21` [Example 217, N-(4-Phenylbutyl)-4-(2-oxa-7-azaspiro[3.5]nonan-7-yl)-1H-benzo[d]imidazole-1-carboxamide]: the IC50 against acid ceramidase was less than 200 nM. In addition, in series [1], the concentration in solution (solubility) was 0.6 µg/mL (≈ 1.43 µM).
In the case of `CC(=O)N1CCN(c2cccc3c2ncn3C(=O)NCCCc2ccccc2)CC1` [Example 218, 4-(4-Acetylpiperazin-1-yl)-N-(3-phenylpropyl)-1H-benzo[d]imidazole-1-carboxamide], the IC50 on acid ceramidase is less than 200 nM. Further, the solubility in series [1] was 24 µg/mL (≈ 59.2 µM).
Turning to `C[C@@H]1CN(c2cccc3c2ncn3C(=O)NCCCc2ccccc2)C[C@H](C)O1` [Example 219, 4-((2S,6R)-2,6-Dimethylmorpholino)-N-(3-phenylpropyl)-1H-benzo[d]imidazole-1-carboxamide], at acid ceramidase, the IC50 was less than 200 nM. In series [1], the solubility worked out at 0.5 µg/mL (≈ 1.27 µM).
Turning to `CC(C)CCNC(=O)n1cnc2c(N3[C@@H]4CC[C@H]3COC4)cccc21` [Example 220, 4-((1R,5S)-3-Oxa-8-azabicyclo[3.2.1]octan-8-yl)-N-isopentyl-1H-benzo[d]imidazole-1-carboxamide], on acid ceramidase, the IC50 lay within 200 to 1000 nM. Further, the concentration in solution in series [1] (solubility) came to 4 µg/mL (≈ 11.7 µM).
The matching figures for `CC(C)CCNC(=O)n1cnc2c(N3CC4CCC(C3)O4)cccc21` [Example 221, 4-(8-Oxa-3-azabicyclo[3.2.1]octan-3-yl)-N-isopentyl-1H-benzo[d]imidazole-1-carboxamide]: 200 to 1000 nM and 5 µg/mL (≈ 14.6 µM).
On acid ceramidase, `COc1nc2ccc(N3CCOCC3)cc2n1C(=O)NCCCc1ccc(F)cc1` [Example 221a] displayed an IC50 of less than 200 nM. Moreover, the solubility in series [1] came out at 4 µg/mL (≈ 9.7 µM).
Compound `COc1nc2cc(N3CCOCC3)ccc2n1C(=O)NCCCc1ccc(F)cc1` [Example 221b] had an IC50 on acid ceramidase of less than 200 nM. In series [1], the concentration in solution (solubility) came to 15 µg/mL (≈ 36.4 µM).
